Laboratory results as given in patent US8536137B2, “Methods for treating nucleoside-induced pain” (UCB Pharma GmbH, priority 2004, dated 2013).

How the values were obtained:
[1] = system: rats intoxicated with anti-retroviral nucleoside analogue AIDS therapy drugs; settings: intoxicated animals; literature report; cited from earlier work
ddC-rats [2] = test: Nucleoside-induced pain model (ddC): hot plate test at 52° C. at D20 (thermal hyperalgesia); format: in vivo, rat
Method: (§1) Animals were placed into a glass cylinder on a hot plate (Bioblock, France) adjusted to 38° C. or 52° C. The latency of the first reaction (licking, moving the paws, little leaps or a jump to escape the heat) was recorded with a cut off time of 30 s.
(§2) ANOVA followed by post-hoc analysis (Dunneft's test) was used to compare groups of behavioral data in each individual time points.
(§3) For this study, 50 male Sprague Dawley (˜220 g) rats were used (Janvier, Le Genest-St-isle, France). Rats were group-housed (3 animals per cage) and maintained in a room with controlled temperature (21-22° C.) and a reversed light-dark cycle (12 h/12 h) with food and water available ad libitum. All experiments were carried out in accordance with institutional guidelines. Intoxication was achieved by a single injection of ddC (50 mg/kg, I.V. in tail vein).

vincristine-rats [3] = test: Vincristine-induced pain model: hot plate test at 52° C. (thermal hyperalgesia); format: in vivo, rat; settings: day 17, p<0.05 Dunnett's, comparable with control
Method: (§4) For this study, 86 female Dark Agouti rats (150-200 g) were used (Harlan, Gannat, France), They were group-housed (3 animals per cage) and maintained in a room with controlled temperature (21-22° C.) and a reversed light-dark cycle (12 h/12 h) with food and water available ad libitum. All experiments were carried out in accordance with institutional guidelines. Vincristine intoxication was achieved by daily injection of vincristine (0.15 mg/kg/d, i.p.) from day 1 to 5, from day 8 to 12 and days 15 to 16. On day 17, animals were submitted to the behavioral test and received pharmacological treatment.
as §1, §2

vincristine-rats [4] = test: Vincristine-induced pain model: von Frey hair stimulation test (mechanical allodynia); format: in vivo, rat; settings: day 17; for paw withdrawal latency in von Frey filament test, difference with vehicle-treated group: p<0.05 Dunnett's
Method: as §4
(§5) Rats were placed on a metallic grid floor. The nociceptive testing was done by inserting the von Frey filament (Bioseb, France) through the grid floor and applying it to the plantar surface of the hind paw. A trial consisted of several applications of the different von Frey filaments (at a frequency of 1-1.5 s). The von Frey filaments were applied from filament 10 g to 100 g. The mechanical allodynia threshold was recorded as soon as the animal removed its hind paw the test was stopped and the filament number was recorded.
as §2

vincristine-rats [5] = test: Vincristine-induced pain model: hot plate test at 38° C. (thermal allodynia); format: in vivo, rat; settings: day 17
Method: as §4, §1, §2

ddC-rats [6] = test: Nucleoside-induced pain model (ddC): brushing test at day 20 (mechanical allodynia); format: in vivo, rat
Method: as §2, §3
The hair on the legs, flanks, and lower back was sequentially brushed with a cotton-tipped applicator using an oscillating motion (rate of 1-2/s; 30 sec). Brushing was done with no more force than required to move the applicator through the hair such that only the pelage is disturbed. Vocalization and moderate effects to avoid the brushing were counted.

[7] = system: bone cancer rats (MRMT-1 rat mammary gland carcinoma cells injected into the tibia); test: Bone cancer rat model: thermal paw stimulation (thermal hyperalgesia); format: in vivo; settings: SPM 927 30 mg/kg, days 14 and 15; Dunnett's p<0.001
Method: Cells were cultured in medium containing RPMI-1640 (Gibco, 500 ml), 10% heat-inactivated fetal bovine serum (Hyclone), L-glutamine (final concentration 2 mM, from Gibco) and antibiotic solution (final concentration 100 U/ml penicillin and 100 ug/ml streptomycin sulfate, from Gibco). Cells were released from the tissue culture flask by brief exposure to 0.1% trypsin so (Gibco) and then prepared for injection as follows: cells were centrifuged for 10 minutes at approximately 1,200 rpm. The resulting pellet was washed twice in Phosphate Buffered Saline (PBS, Mediatech) containing no calcium or magnesium. Final pellet was re-suspended in PBS and cell count taken using a hemocytometer. Cells were diluted to achieve final concentrations for injection and kept on ice until injection was performed.
After one week of quarantine, either culture media or 3×10^4 syngeneic MRMT-1 rat mammary gland carcinoma cells were injected into the medullary cavity of the proximal tibia of each rat. Procedurally, the animal was first anesthetized with ketamine/xylazine and the right leg area shaved and treated with an iodine solution and cleaned with a 70% ethanol solution. A 1-cm rostral-caudal incision was made in the skin over the top half of the tibia. […]
On days 7, 8, 14 and 15, pain assessment tests were performed. […] The animals were first evaluated for mechanical allodynia and then thermal hyperalgesia. […]

vincristine-rats [8] = test: Vincristine-induced pain model: paw pressure test (mechanical hyperalgesia); format: in vivo, rat; settings: day 17; for paw withdrawal latency in paw pressure test (Randall & Selitto): p<0.05 Dunnett's
Method: as §4
(§6) The nociceptive flexion reflex was quantified using the Randall-Selitto paw pressure device (Bioseb, France), which applies a linearly increasing mechanical force to the dorsum of the rat's hind paw. The mechanical nociceptive threshold was defined as the force in grams at which the rat withdrew its paw. The cut off pressure was set to 250 g.
as §2

[9] = system: bone cancer rats (MRMT-1 rat mammary gland carcinoma cells injected into the tibia); test: Bone cancer rat model: weight bearing difference (mechanical hyperalgesia); format: in vivo; settings: SPM 927 40 mg/kg, following treatment; p<0.05
Method: After one week of quarantine, either culture media or 3×10^4 syngeneic MRMT-1 rat mammary gland carcinoma cells were injected into the medullary cavity of the proximal tibia of each rat. Procedurally, the animal was first anesthetized with ketamine/xylazine and the right leg area shaved and treated with an iodine solution and cleaned with a 70% ethanol solution. A 1-cm rostral-caudal incision was made in the skin over the top half of the tibia. Blunt-dissection was performed to expose the tibia, ensuring minimal damage to muscles or blood vessels. Using a 23-gauge needle, the tibia was pierced. […] The needle was inserted at an angle to enable it to be pushed down into the intramedullary canal of the bone. Once a pathway to the intramedullary canal was opened, the 23-gauge needle was removed and replaced by a blunt needle attached to a 5 μl Hamilton syringe. […]
On days 7, 8, 14 and 15, pain assessment tests were performed. […] The animals were first evaluated for mechanical allodynia and then thermal hyperalgesia. […] The animals were first evaluated for baseline weight bearing responses. […]
After the animals in groups 4-6 were re-randomized to drug treatment groups, on day 9, 15 all animals underwent weight-bearing testing. Weight bearing of affected hind limbs was assessed as the difference in weight borne by the ipsilateral compared to the contralateral limb. […]

vincristine-rats [10] = test: Vincristine-induced pain model: cold bath test (thermal allodynia); format: in vivo, rat; settings: day 17; for threshold latency in cold bath test vs vincristine/vehicle: 30 min before test
Method: as §4
(§7) Animals were placed on ice platform submerged approximately 1 cm below the surface of cold water (4° C.), such that the hairy and glabrous skin of the animal feet was in contact with the cold water. The latency before the first reaction (licking, moving the paws, little leaps) was recorded with a cut off time of 30 s.
as §2

ddC-rats [11] = test: Nucleoside-induced pain model (ddC): cold bath test (thermal allodynia); format: in vivo, rat; settings: for threshold latency in cold bath test vs ddC/vehicle: p<0.05 Dunnett's, comparable to control animals
Method: as §7, §2, §3

ddC-rats [12] = test: Nucleoside-induced pain model (ddC): paw pressure test at D10 (mechanical hyperalgesia); format: in vivo, rat; settings: p<0.05 Dunnett's
Source text: as §6, §2, §3

ddC-rats [13] = test: Nucleoside-induced pain model (ddC): von Frey filament test at D10 (mechanical allodynia); format: in vivo, rat; settings: for paw withdrawal latency in von Frey filament test, difference with vehicle-treated group: p<0.05, level comparable to control group
Method: as §5, §2, §3

[14] = system: rat model of bone cancer pain, chemotherapy- and nucleoside-induced pain; test: Overall summary of the bone cancer, chemotherapy-induced and nucleoside-induced pain models; format: in vivo; settings: across the three rat models
Source text: The effect of systemic administration of SPM 927 was examined in rats in a tumor-induced bone cancer pain model, in a chemotherapy-induced and a nucleoside analogue-induced neuropathic pain model. SPM 927 reduced mechanical and thermal hyperalgesia as well as mechanical and thermal allodynia in these models.

## COc1cc(N(CC(=O)O)CC(=O)O)c2nc(COc3cc(C)ccc3N(CC(=O)O)CC(=O)O)ccc2c1 [Quin-2]
[1]
  reversal of nucleoside reverse transcriptase inhibitor-induced hypersensitivity: capable of reversing

## COC[C@@H](NC(C)=O)C(=O)NCc1ccccc1 [SPM 927, (R)-2-acetamide-N-benzyl-3-methoxypropionamide]
ddC-rats [2]; SPM 927 3 mg/kg i.p.
  paw withdrawal latency in hot plate test at 52° C., effect: comparable with untreated vehicle group
ddC-rats [2]; SPM 927 10 mg/kg i.p.
  paw withdrawal latency in hot plate test at 52° C., effect: comparable with untreated vehicle group
ddC-rats [2]; SPM 927 30 mg/kg i.p., p<0.05 Dunnett's
  paw withdrawal latency in hot plate test at 52° C. vs vehicle-treated animals: significant increase
vincristine-rats [3]; SPM 927 3 mg/kg i.p.
  paw withdrawal latency in hot plate test at 52° C. vs vehicle-treated animals: significant increase
vincristine-rats [3]; SPM 927 10 mg/kg i.p.
  paw withdrawal latency in hot plate test at 52° C. vs vehicle-treated animals: significant increase
vincristine-rats [3]; SPM 927 30 mg/kg i.p.
  paw withdrawal latency in hot plate test at 52° C. vs vehicle-treated animals: significant increase
vincristine-rats [4]; SPM 927 10 mg/kg i.p.
  paw withdrawal latency in von Frey filament test, difference with vehicle-treated group: reached the significance level
vincristine-rats [4]; SPM 927 30 mg/kg i.p.
  paw withdrawal latency in von Frey filament test, difference with vehicle-treated group: reached the significance level
vincristine-rats [5]; SPM 927 3 mg/kg i.p.
  threshold latency in hot plate (38° C.) test vs vincristine/vehicle: significant (p<0.05, Dunneft's test) increase
vincristine-rats [5]; SPM 927 10 mg/kg i.p., comparable with control animals
  threshold latency in hot plate (38° C.) test vs vincristine/vehicle: significant (p<0.05, Dunneft's test) increase
vincristine-rats [5]; SPM 927 30 mg/kg i.p., comparable with control animals
  threshold latency in hot plate (38° C.) test vs vincristine/vehicle: significant (p<0.05, Dunneft's test) increase
ddC-rats [6]; SPM 927 3 mg/kg i.p., D 20, p<0.05 Dunnett's
  total number of cries in brushing test: significant decrease
ddC-rats [6]; SPM 927 10 mg/kg i.p., D 20, p<0.05 Dunnett's
  total number of cries in brushing test: significant decrease
ddC-rats [6]; SPM 927 30 mg/kg i.p., D20, p<0.05 Dunnett's
  total number of cries in brushing test: significant decrease
[7]
  latency to remove paw (thermal paw testing), post-treatment vs 'cells only': different
vincristine-rats [8]; SPM 927 10 mg/kg i.p.
  paw withdrawal latency in paw pressure test (Randall & Selitto): significant increase
vincristine-rats [8]; SPM 927 30 mg/kg i.p.
  paw withdrawal latency in paw pressure test (Randall & Selitto): significant increase
[9]
  amount of weight placed on contralateral paw (weight bearing difference) vs 'cells only' group: significant reduction
vincristine-rats [10]; SPM 927 3 mg/kg i.p., slightly greater than vincristine-animals
  threshold latency in cold bath test vs vincristine/vehicle: statistical difference was not reached
vincristine-rats [10]; SPM 927 10 mg/kg i.p., p<0.05 Dunnett's, comparable to control animals
  threshold latency in cold bath test vs vincristine/vehicle: significant increase
vincristine-rats [10]; SPM 927 30 mg/kg i.p., p<0.05 Dunnett's, comparable to control animals
  threshold latency in cold bath test vs vincristine/vehicle: significant increase
ddC-rats [11]; SPM 927 3 mg/kg i.p.
  threshold latency in cold bath test vs ddC/vehicle: significant increase
ddC-rats [11]; SPM 927 10 mg/kg i.p.
  threshold latency in cold bath test vs ddC/vehicle: significant increase
ddC-rats [11]; SPM 927 30 mg/kg i.p.
  threshold latency in cold bath test vs ddC/vehicle: significant increase
ddC-rats [12]; SPM 927 3 mg/kg i.p.
  paw withdrawal latency in paw pressure test (Randall & Selitto): significant increase
ddC-rats [12]; SPM 927 10 mg/kg i.p.
  paw withdrawal latency in paw pressure test (Randall & Selitto): significant increase
ddC-rats [12]; SPM 927 30 mg/kg i.p.
  paw withdrawal latency in paw pressure test (Randall & Selitto): significant increase
ddC-rats [13]; SPM 927 3 mg/kg i.p.
  paw withdrawal latency in von Frey filament test, difference with vehicle-treated group: reached the significance level
ddC-rats [13]; SPM 927 10 mg/kg i.p.
  paw withdrawal latency in von Frey filament test, difference with vehicle-treated group: reached the significance level
ddC-rats [13]; SPM 927 30 mg/kg i.p.
  paw withdrawal latency in von Frey filament test, difference with vehicle-treated group: reached the significance level
[14]; systemic administration
  analgesic activity compared with morphine: overall more active than morphine
[14]; systemic, single dose administration
  anti-allodynic and anti-hyperalgesic effect: dose-dependent

## CCN(CC)CCCCCCCCOC(=O)c1cc(OC)c(OC)c(OC)c1 [TMB-8]
[1]
  reversal of nucleoside reverse transcriptase inhibitor-induced hypersensitivity: capable of reversing

## CN1CC[C@]23c4c5ccc(O)c4O[C@H]2[C@@H](O)C=C[C@H]3[C@H]1C5 [morphine, reference compound]
vincristine-rats [4]; morphine 3 mg/kg s.c.
  performance in von Frey filament test: restored the performance of vincristine-rats to a level comparable with that of control group
vincristine-rats [5]; morphine 3 mg/kg s.c.
  threshold latency in hot plate (38° C.) test, level reached: comparable with that of control rats
ddC-rats [6]; morphine 3 mg/kg s.c., D 20
  total number of cries in brushing test: significantly decrease
vincristine-rats [8]; morphine 3 mg/kg s.c., p>0.05
  performance in paw pressure test (Randall & Selitto): did not modify the performance
vincristine-rats [10]; morphine 3 mg/kg s.c., 45 min before test
  threshold latency in cold bath test, level reached: far above that obtained from control rats
ddC-rats [11]; morphine 3 mg/kg s.c.
  threshold latency in cold bath test, level reached: comparable to that obtained from control rats
ddC-rats [12]; morphine 3 mg/kg s.c.
  performance in paw pressure test (Randall & Selitto): increased the performance
ddC-rats [13]; morphine 3 mg/kg s.c.
  performance in von Frey filament test: restored the performance of ddC-rats to a level similar to control group
